Measurements: ChEMBL document CHEMBL1649108, “Discovery of AMG 369, a Thiazolo[5,4-b]pyridine Agonist of S1P1 and S1P5” (ACS Med Chem Lett, 2011)
The source made the active and inactive calls. The rule behind the calls is not given here.

Experiments:
[1] = target: T1, Sphingosine 1-phosphate receptor 1 (Homo sapiens, UniProt P21453); assay: Induction of human GFP-tagged chimeric S1P1R internalization in human U2Os cells by fluorescence microscopy; type: cell-based
[2] = target: T1, Sphingosine 1-phosphate receptor 1; assay: Induction of human GFP-tagged chimeric S1P1R internalization in human U2Os cells by fluorescence microscopy relative to 1-(4-(6-benzylbenzofuran-2-yl)-3-fluorobenzyl)azetidine-3-carboxylic acid; type: cell-based
[3] = target: T2, Sphingosine 1-phosphate receptor 3 (Homo sapiens, UniProt Q99500); assay: Agonist activity at human S1P3R expressed in CHO cells by Ca(2+) mobilization assay; type: functional, cell-based
T2 sequence (Q99500 whole entry): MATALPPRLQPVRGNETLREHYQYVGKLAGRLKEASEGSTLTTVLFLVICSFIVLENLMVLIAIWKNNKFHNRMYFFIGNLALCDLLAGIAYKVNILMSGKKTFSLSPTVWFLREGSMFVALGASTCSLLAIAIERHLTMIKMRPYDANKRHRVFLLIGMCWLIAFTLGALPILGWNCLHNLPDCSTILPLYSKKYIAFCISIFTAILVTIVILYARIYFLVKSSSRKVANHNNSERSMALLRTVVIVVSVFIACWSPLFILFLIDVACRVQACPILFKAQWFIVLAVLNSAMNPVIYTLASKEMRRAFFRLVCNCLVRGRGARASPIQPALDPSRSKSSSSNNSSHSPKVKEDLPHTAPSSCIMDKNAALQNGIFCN

[4] = target: T2, Sphingosine 1-phosphate receptor 3; assay: Agonist activity at human S1P3R expressed in CHO cells by Ca(2+) mobilization assay relative to S1P; type: functional, cell-based; set-up: concentration or dose not given beside the values
[5] = target: T2, Sphingosine 1-phosphate receptor 3; assay: Agonist activity at human S1P3R expressed in CHO cells at 2.5 uM by Ca(2+) mobilization assay relative to S1P; type: functional, cell-based
[6] = target: T3, Sphingosine 1-phosphate receptor 5 (Homo sapiens, UniProt Q9H228); assay: Agonist activity at human S1P5R expressed in CHO cells by Ca(2+) mobilization assay; type: functional, cell-based
T3 sequence (Q9H228 whole entry): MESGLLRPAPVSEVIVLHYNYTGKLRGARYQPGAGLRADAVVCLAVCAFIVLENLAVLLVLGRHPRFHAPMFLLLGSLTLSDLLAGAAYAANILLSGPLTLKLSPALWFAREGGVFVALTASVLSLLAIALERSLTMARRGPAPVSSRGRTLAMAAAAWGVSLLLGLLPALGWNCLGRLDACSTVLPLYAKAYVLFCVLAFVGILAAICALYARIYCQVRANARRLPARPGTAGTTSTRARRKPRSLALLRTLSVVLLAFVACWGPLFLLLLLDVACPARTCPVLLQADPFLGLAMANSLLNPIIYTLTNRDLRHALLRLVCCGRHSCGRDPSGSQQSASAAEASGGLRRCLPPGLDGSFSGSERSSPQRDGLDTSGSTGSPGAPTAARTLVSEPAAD

[7] = target: T3, Sphingosine 1-phosphate receptor 5; assay: Agonist activity at human S1P5R expressed in CHO cells by Ca(2+) mobilization assay relative to control; type: functional, cell-based
[8] = target: Sphingosine 1-phosphate receptor 2 (Homo sapiens) (UniProt O95136); assay: Agonist activity at human S1P2R expressed in CHO cells by Ca(2+) mobilization assay; type: functional, cell-based
Chain of Sphingosine 1-phosphate receptor 2 (Homo sapiens) (O95136 whole entry): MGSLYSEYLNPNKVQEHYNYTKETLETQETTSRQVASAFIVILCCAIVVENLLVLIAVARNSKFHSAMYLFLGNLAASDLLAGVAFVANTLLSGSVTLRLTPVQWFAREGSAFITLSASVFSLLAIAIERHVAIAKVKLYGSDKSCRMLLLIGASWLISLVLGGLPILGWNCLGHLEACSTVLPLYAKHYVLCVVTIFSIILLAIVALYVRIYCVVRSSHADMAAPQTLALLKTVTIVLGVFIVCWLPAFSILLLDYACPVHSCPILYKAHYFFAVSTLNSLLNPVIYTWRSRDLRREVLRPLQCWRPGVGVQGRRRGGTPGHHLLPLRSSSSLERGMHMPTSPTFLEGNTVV

[9] = target: T4, Sphingosine 1-phosphate receptor 4 (Homo sapiens) (UniProt O95977); assay: Agonist activity at human S1P4R expressed in CHO cells by Ca(2+) mobilization assay; type: functional, cell-based
T4 sequence (whole entry): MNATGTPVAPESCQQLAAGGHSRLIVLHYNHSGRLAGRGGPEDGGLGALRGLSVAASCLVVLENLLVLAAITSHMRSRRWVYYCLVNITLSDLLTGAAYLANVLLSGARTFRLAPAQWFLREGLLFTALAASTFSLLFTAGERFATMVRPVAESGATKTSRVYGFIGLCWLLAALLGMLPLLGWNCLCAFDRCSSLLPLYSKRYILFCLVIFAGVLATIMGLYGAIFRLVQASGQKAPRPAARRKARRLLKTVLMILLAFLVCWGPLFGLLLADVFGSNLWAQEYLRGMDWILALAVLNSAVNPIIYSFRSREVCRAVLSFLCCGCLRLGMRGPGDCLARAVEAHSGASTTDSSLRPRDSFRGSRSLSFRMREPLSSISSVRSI

[10] = system: Rattus norvegicus; assay: Lymphopenic activity in orally dosed Lewis rat assessed as reduction in blood lymphocyte counts measured 24 hrs post dose; type: functional, organism-based
[11] = system: Rattus norvegicus; assay: Lymphopenic activity in Lewis rat assessed as reduction in blood lymphocyte counts at 0.03 mg/kg, po administered as single dose measured 24 hrs post dose; type: functional
[12] = system: Rattus norvegicus; assay: Lymphopenic activity in Lewis rat assessed as reduction in blood lymphocyte counts at 0.1 mg/kg, po administered as single dose measured 24 hrs post dose; type: functional
[13] = Clearance in Sprague-Dawley rat at 1 mg/kg, iv or 2 mg/kg, po; type: ADME, organism-based; conditions: in vivo
[14] = Volume of distribution at steady state in Sprague-Dawley rat at 1 mg/kg, iv or 2 mg/kg, po; type: ADME, organism-based; conditions: in vivo, read-out: Vdss
[15] = Half life in Sprague-Dawley rat at 1 mg/kg, iv or 2 mg/kg, po; type: ADME, organism-based; conditions: in vivo
[16] = Mean residence time in Sprague-Dawley rat at 1 mg/kg, iv or 2 mg/kg, po; type: ADME, organism-based; conditions: in vivo
[17] = Oral bioavailability in Sprague-Dawley rat 2 mg/kg; type: ADME, organism-based; conditions: in vivo
[18] = Clearance in Beagle dog at 1 mg/kg, iv or 1 mg/kg, po; type: ADME, organism-based, Canis lupus familiaris; conditions: in vivo
[19] = Volume of distribution at steady state in Beagle dog at 1 mg/kg, iv or 1 mg/kg, po; type: ADME, organism-based, Canis lupus familiaris; conditions: in vivo, read-out: Vdss
[20] = Half life in Beagle dog at 1 mg/kg, iv or 1 mg/kg, po; type: ADME, organism-based, Canis lupus familiaris; conditions: in vivo
[21] = Mean residence time in Beagle dog at 1 mg/kg, iv or 1 mg/kg, po; type: ADME, organism-based, Canis lupus familiaris; conditions: in vivo
[22] = Oral bioavailability in Beagle dog 1 mg/kg; type: ADME, organism-based, Canis lupus familiaris; conditions: in vivo
[23] = Volume of distribution at steady state in cynomolgus monkey at 1 mg/kg, iv or 1 mg/kg, po; type: ADME, organism-based, Macaca fascicularis; conditions: in vivo, read-out: Vdss
[24] = Half life in cynomolgus monkey at 1 mg/kg, iv or 1 mg/kg, po; type: ADME, organism-based, Macaca fascicularis; conditions: in vivo
[25] = Mean residence time in cynomolgus monkey at 1 mg/kg, iv or 1 mg/kg, po; type: ADME, organism-based, Macaca fascicularis; conditions: in vivo
[26] = Oral bioavailability in cynomolgus monkey 1 mg/kg; type: ADME, organism-based, Macaca fascicularis; conditions: in vivo
[27] = system: Rattus norvegicus; assay: Toxicity in telemetered Sprague-Dawley rat assessed as change in mean arterial pressure at 10 mg/kg, po; type: organism-based, Artery; set-up: dose 10 mg/kg, route oral; conditions: in vivo
[28] = system: Rattus norvegicus; assay: Toxicity in telemetered Sprague-Dawley rat assessed as effect on heart rate at 10 mg/kg, po; type: organism-based; set-up: dose 10 mg/kg, route oral; conditions: in vivo
[29] = Inhibition of Cytochrome P450; type: ADME
[30] = Mutagenic activity in Salmonella Typhimurium by Ames assay; type: toxicity; conditions: salmonella enterica subsp. enterica serovar typhimurium
[31] = target: Voltage-gated inwardly rectifying potassium channel KCNH2 (Homo sapiens, UniProt Q12809); assay: Inhibition of human ERG at 2.3 uM by patch-clamp method
Chain of Voltage-gated inwardly rectifying potassium channel KCNH2 (Q12809 whole entry): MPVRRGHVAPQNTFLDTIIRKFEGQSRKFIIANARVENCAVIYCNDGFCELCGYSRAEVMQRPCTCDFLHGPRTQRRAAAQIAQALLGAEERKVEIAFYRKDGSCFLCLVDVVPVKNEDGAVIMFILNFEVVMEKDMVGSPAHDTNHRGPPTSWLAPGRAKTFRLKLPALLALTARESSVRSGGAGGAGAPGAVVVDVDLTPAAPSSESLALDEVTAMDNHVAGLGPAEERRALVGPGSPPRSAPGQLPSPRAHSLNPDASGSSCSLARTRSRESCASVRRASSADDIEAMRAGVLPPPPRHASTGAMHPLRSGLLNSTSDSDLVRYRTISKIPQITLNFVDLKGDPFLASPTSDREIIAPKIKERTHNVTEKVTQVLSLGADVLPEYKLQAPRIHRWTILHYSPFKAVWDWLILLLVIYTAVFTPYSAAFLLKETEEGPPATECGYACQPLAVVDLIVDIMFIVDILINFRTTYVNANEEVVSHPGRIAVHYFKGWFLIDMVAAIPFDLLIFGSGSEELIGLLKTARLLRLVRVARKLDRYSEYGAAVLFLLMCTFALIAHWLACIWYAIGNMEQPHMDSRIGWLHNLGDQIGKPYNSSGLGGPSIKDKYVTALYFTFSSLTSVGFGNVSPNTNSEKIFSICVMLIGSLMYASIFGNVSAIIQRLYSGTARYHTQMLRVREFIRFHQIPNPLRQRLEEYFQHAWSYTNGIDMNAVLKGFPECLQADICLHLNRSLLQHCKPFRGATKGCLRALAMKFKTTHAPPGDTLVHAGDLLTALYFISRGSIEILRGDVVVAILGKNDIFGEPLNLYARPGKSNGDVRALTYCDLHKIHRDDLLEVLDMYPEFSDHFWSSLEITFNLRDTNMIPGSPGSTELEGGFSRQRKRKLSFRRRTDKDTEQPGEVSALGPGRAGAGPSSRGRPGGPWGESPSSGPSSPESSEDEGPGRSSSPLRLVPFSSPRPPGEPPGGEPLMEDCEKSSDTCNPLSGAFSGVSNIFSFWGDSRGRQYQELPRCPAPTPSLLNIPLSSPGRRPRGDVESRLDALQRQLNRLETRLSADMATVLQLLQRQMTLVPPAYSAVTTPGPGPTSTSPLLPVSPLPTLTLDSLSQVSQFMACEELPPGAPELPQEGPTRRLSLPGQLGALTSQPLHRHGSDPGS

[32] = Clearance in cynomolgus monkey at 1 mg/kg, iv or 1 mg/kg, po; type: ADME, organism-based, Macaca fascicularis; conditions: in vivo
[33] = system: Rattus norvegicus; assay: Reduction of disease score in experimental autoimmune encephalitis Lewis rat model of multiple sclerosis at 2 ug/day, po administered at the time of immunization with guinea pig myelin basic protein
[34] = system: Rattus norvegicus; assay: Reduction of disease score in experimental autoimmune encephalitis Lewis rat model of multiple sclerosis at 20 ug/day, po administered at the time of immunization with guinea pig myelin basic protein
[35] = system: Rattus norvegicus; assay: Induction of delay in onset of disease in experimental autoimmune encephalitis Lewis rat model of multiple sclerosis at 20 ug/day, po administered at the time of immunization with guinea pig myelin basic protein
[36] = system: Rattus norvegicus; assay: Lymphopenic activity in Lewis rat assessed as reduction in blood lymphocyte counts at 1 mg/kg, po administered as single dose measured 24 hrs post dose; type: functional, organism-based; set-up: dose 1 mg/kg

T1 sequence (P21453 whole entry): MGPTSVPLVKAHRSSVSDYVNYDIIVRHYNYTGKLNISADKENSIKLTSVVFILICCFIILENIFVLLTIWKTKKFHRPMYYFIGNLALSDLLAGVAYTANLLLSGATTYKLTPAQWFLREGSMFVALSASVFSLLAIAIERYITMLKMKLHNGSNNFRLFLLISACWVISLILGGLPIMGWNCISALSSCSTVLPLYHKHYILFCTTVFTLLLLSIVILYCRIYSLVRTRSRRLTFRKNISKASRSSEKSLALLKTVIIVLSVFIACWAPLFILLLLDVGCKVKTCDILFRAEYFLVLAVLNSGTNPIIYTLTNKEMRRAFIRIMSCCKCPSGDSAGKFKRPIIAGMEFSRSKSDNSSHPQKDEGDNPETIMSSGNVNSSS

Question: For `O=C(O)C1CN(Cc2ccc(-c3nc4cc(Cc5ccccc5)cnc4s3)c(F)c2)C1`, which EC50 [1] is on record?
Answer: 138 nM

Question: And the Efficacy [2]?
Answer: 125%

Question: And the EC50 [3]?
Answer: 2890 nM

Question: And the Activity [4]?
Answer: 36%

Question: What does the source list for `O=C(O)C1CN(Cc2ccc(-c3nc4ccc(C5(c6ccccc6)CCCC5)nc4s3)c(F)c2)C1`?
Answer: EC50 [1]: 26 nM; Efficacy [2]: 76%; Efficacy [5]: 12%

Question: For `C[C@H](c1ccccc1)c1ccc2nc(-c3ccc(CN4CC(C(=O)O)C4)cc3F)sc2n1`, which EC50 [1] is on record?
Answer: 38 nM

Question: What about the Efficacy [2] of the same molecule?
Answer: 87%

Question: What about the EC50 [3] of the same molecule?
Answer: 996 nM

Question: And the Activity [4]?
Answer: 45%

Question: With `O=C(O)C1CN(Cc2ccc(-c3nc4ccc(C5(c6ccccc6)CCC5)nc4s3)c(F)c2)C1` as the molecule, how does the EC50 [1] read?
Answer: 119 nM

Question: And the Efficacy [2]?
Answer: 124%

Question: And the EC50 [3]?
Answer: 1310 nM

Question: And the Activity [4]?
Answer: 68%

Question: Which EC50 [1] does the source give for `O=C(O)C1CN(Cc2ccc(-c3nc4cnc(Cc5ccccc5)cc4s3)c(F)c2)C1` here?
Answer: 3980 nM

Question: What about the Efficacy [2] of the same molecule?
Answer: 77%

Question: What about the EC50 [3] of the same molecule?
Answer: 5460 nM

Question: What about the Activity [4] of the same molecule?
Answer: 64%

Question: Which results are given for `CC(C)(c1ccccc1)c1ccc2nc(-c3ccc(CN4CC(C(=O)O)C4)cc3F)sc2n1`?
Answer: EC50 [1]: 33 nM; Efficacy [2]: 103%; EC50 [3]: 2510 nM; Activity [4]: 64%

Question: For `O=C(O)C1CN(Cc2ccc(-c3nc4ccc(C5(c6ccccc6)CC5)cc4s3)c(F)c2)C1`, which EC50 [1] is on record?
Answer: 38 nM

Question: And the Efficacy [2]?
Answer: 93%

Question: And the EC50 [3]?
Answer: 4670 nM

Question: What about the Activity [4] of the same molecule?
Answer: 56%

Question: What does the source list for `O=C(O)C1CN(Cc2ccc(-c3nc4ccc(C5(c6ccccc6)CCCCC5)nc4s3)c(F)c2)C1`?
Answer: EC50 [1]: 33 nM; Efficacy [2]: 108%; EC50 [3]: 836 nM; Activity [4]: 41%

Question: With `C[C@@H](c1ccccc1)c1ccc2nc(-c3ccc(CN4CC(C(=O)O)C4)cc3F)sc2n1` as the molecule, how does the EC50 [1] read?
Answer: 35 nM

Question: What about the Efficacy [2] of the same molecule?
Answer: 99%

Question: What about the EC50 [3] of the same molecule?
Answer: 877 nM

Question: What about the Activity [4] of the same molecule?
Answer: 44%

Question: What does the source list for `O=C(O)C1CN(Cc2ccc(-c3nc4ccc(C5(c6ccccc6)CC5)nc4s3)c(F)c2)C1`?
Answer: Efficacy [2]: 98%; Activity [4]: 26%; EC50 [6]: 29 nM; Efficacy [7]: 50%; Activity [8]: inactive; Activity [9]: inactive; inhibition [10]: Dose-dependent effect; inhibition in vivo at 0.03 mg/kg [11]: 45%; inhibition in vivo at 0.1 mg/kg [12]: 65%; clearance [13]: 3 mL/min/kg; Vd [14]: 1.8 L/kg; half-life [15]: 5.9 h; MRT [16]: 10 h; bioavailability [17]: 64%; clearance [18]: 1.18 mL/min/kg; Vd [19]: 1.2 L/kg; half-life [20]: 38 h; MRT [21]: 17 h; bioavailability [22]: 41%; Vd [23]: 2.3 L/kg; half-life [24]: 24 h; MRT [25]: 4.7 h; bioavailability [26]: 34%; Activity [27]: Non-toxic; Activity [28]: Non-toxic; inhibition (INH) [29]: Not Active; Activity [30]: Non-toxic; inhibition (INH) [31]: Not Active; clearance [32]: 8.33 mL/min/kg; Activity [33]: inactive; Activity [34]: Active; Activity [35]: Active

Question: Which EC50 [1] does the source give for `O=C(O)C1CN(Cc2ccc(-c3nc4ccc(Cc5ccccc5)cc4s3)c(F)c2)C1` here?
Answer: 221 nM

Question: And the EC50 [3]?
Answer: 3470 nM

Question: And the Activity [4]?
Answer: 50%

Question: Which EC50 [1] does the source give for `O=C(O)C1CN(Cc2ccc(-c3nc4cc(Cc5ccccc5)ncc4s3)c(F)c2)C1` here?
Answer: 429 nM

Question: What about the Efficacy [2] of the same molecule?
Answer: 115%

Question: What about the EC50 [3] of the same molecule?
Answer: > 25000 nM

Question: Which EC50 [1] does the source give for `O=C(O)C1CN(Cc2ccc(-c3nc4nc(Cc5ccccc5)ccc4s3)c(F)c2)C1` here?
Answer: 144 nM

Question: And the Efficacy [2]?
Answer: 106%

Question: What about the EC50 [3] of the same molecule?
Answer: 10100 nM

Question: What about the Activity [4] of the same molecule?
Answer: 63%

Question: With `O=C(O)C1CN(Cc2ccc(-c3nc4ncc(Cc5ccccc5)cc4s3)c(F)c2)C1` as the molecule, how does the EC50 [1] read?
Answer: 1600 nM

Question: What about the Efficacy [2] of the same molecule?
Answer: 75%

Question: And the EC50 [3]?
Answer: > 25000 nM

Question: With `O=C(O)C1CN(Cc2ccc(-c3nc4ccc(Cc5ccccc5)nc4s3)c(F)c2)C1` as the molecule, how does the EC50 [1] read?
Answer: 199 nM

Question: What about the Efficacy [2] of the same molecule?
Answer: 92%

Question: And the EC50 [3]?
Answer: 478 nM

Question: And the Activity [4]?
Answer: 94%

Question: Which Efficacy [2] does the source give for `O=C(O)C1CN(Cc2ccc(-c3nc4cc(Cc5ccccc5)ccc4s3)c(F)c2)C1` here?
Answer: 102%

Question: What about the Activity [4] of the same molecule?
Answer: 24%

Question: What about the inhibition [36] of the same molecule?
Answer: Active
